From ChEMBL document CHEMBL1201862, “PubChem BioAssay data set” (2004)
Activity calls are given as the source filed them.

Legend:
[1] = molecular target: Luciferin 4-monooxygenase (Photinus pyralis, UniProt P08659); experiment: inhibition of purified Photinus pyralis luciferase – biochemical, luminescence, dose response (AID 1891)
[2] = Luminescence Cell-Based Dose Confirmation HTS to Identify Inhibitors of Platelet Dense Granule Release. [Related pubchem assays: 1663 (Primary HTS), 1678 (Summary of Project)]; format: functional
cells = format: functional
[3] = molecular target: T1, Sentrin-specific protease 7 (Homo sapiens, UniProt Q9BQF6); format: functional;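 further: Luminescence-based dose-response confirmation of ultra-high-throughput screening hits, measuring inhibition of SENP7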
T1 sequence (Q9BQF6 whole entry): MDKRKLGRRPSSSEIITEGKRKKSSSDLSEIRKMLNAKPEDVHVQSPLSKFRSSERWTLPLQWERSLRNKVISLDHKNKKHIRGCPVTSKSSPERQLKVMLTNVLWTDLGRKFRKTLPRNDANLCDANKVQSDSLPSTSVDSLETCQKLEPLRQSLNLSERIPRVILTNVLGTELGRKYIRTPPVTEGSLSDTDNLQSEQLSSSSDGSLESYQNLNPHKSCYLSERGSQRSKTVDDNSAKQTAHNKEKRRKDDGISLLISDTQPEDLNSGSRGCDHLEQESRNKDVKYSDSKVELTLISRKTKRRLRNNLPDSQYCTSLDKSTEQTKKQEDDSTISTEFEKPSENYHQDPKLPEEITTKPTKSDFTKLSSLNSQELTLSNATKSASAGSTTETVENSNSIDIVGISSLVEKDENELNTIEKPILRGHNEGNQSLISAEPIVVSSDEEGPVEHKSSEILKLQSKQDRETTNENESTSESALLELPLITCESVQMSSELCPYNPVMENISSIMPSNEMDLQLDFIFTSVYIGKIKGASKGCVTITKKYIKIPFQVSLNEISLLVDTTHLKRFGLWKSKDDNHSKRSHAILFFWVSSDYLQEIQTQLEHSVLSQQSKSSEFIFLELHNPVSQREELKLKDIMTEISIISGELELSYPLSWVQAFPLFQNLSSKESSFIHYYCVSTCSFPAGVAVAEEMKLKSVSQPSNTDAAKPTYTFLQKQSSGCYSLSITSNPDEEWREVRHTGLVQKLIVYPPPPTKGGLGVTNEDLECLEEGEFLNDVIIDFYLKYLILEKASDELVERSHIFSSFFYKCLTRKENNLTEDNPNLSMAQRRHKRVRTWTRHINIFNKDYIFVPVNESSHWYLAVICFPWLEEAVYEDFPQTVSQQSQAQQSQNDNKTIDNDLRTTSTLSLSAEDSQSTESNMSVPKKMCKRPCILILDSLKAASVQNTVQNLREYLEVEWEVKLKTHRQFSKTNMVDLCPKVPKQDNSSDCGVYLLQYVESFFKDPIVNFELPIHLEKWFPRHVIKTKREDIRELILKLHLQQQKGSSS

[4] = molecular target: T2, Sentrin-specific protease 8 (Homo sapiens, UniProt Q96LD8); format: functional;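 further: luminescence read-out of SENP8 inhibition, dose-response confirmation following an ultra-high-throughput screen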
T2 sequence (Q96LD8 whole entry): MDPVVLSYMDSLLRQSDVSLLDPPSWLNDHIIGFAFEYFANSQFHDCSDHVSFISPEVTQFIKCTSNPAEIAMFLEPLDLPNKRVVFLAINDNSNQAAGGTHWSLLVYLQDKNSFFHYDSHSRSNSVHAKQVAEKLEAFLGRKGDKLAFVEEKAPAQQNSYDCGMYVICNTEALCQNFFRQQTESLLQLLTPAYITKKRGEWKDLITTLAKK

[5] = molecular target: T3, Sentrin-specific protease 6 (Homo sapiens, UniProt Q9GZR1); format: functional;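 further: Luminescence-based dose-response confirmatory assay of SENP6 inhibition, following up an ultra-high-throughput screen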
T3 sequence (Q9GZR1 whole entry): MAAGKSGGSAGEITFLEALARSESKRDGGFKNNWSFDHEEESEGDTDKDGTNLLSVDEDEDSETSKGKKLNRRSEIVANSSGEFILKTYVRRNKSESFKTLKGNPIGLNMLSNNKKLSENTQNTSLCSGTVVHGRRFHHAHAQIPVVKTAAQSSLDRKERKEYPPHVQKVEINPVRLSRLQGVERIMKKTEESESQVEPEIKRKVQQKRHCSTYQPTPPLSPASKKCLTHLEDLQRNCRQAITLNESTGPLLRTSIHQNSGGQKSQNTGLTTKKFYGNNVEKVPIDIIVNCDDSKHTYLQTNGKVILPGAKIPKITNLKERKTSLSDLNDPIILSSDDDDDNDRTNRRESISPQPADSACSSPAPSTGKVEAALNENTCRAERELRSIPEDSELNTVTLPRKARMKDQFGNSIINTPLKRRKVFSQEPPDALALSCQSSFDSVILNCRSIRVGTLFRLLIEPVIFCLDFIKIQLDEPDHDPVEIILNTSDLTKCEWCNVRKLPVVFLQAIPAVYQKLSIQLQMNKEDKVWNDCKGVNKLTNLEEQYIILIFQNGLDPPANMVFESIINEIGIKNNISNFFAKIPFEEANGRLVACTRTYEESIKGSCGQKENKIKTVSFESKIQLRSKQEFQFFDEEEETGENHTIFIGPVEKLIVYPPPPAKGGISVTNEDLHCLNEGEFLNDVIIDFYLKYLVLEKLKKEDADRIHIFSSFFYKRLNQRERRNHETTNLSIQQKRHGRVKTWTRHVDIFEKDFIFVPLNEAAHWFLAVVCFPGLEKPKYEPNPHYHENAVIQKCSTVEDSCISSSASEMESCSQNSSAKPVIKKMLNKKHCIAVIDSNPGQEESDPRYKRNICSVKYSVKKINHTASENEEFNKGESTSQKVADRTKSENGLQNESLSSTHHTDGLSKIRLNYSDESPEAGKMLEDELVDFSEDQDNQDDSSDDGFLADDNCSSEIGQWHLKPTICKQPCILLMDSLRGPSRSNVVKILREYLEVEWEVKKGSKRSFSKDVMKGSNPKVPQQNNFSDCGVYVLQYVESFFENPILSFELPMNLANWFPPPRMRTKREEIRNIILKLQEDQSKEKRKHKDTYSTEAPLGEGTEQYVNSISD

Caspase-3 = molecular target: T4, Caspase-3 (Homo sapiens, UniProt P42574); format: functional;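 further: Dose-response selectivity test against caspase-3 for candidate inhibitors of sentrin-specific proteases (SENPs)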
T4 sequence (P42574 whole entry): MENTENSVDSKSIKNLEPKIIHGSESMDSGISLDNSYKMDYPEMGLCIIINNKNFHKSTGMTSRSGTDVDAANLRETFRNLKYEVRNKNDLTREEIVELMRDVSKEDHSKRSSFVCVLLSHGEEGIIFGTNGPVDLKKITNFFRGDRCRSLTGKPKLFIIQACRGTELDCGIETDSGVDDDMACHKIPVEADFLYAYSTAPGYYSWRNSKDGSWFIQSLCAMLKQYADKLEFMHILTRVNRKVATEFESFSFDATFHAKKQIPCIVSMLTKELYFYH

[6] = toxicity toward HepG2 liver cells – cell-based, plate reader, cherry-pick, antagonist series, cytotoxicity control, dose response (AID 743416); format: functional
CAAX prenyl protease 2 = molecular target: T5, CAAX prenyl protease 2 (Saccharomyces cerevisiae S288c, UniProt Q03530); format: biochemical
T5 sequence (Q03530 whole entry): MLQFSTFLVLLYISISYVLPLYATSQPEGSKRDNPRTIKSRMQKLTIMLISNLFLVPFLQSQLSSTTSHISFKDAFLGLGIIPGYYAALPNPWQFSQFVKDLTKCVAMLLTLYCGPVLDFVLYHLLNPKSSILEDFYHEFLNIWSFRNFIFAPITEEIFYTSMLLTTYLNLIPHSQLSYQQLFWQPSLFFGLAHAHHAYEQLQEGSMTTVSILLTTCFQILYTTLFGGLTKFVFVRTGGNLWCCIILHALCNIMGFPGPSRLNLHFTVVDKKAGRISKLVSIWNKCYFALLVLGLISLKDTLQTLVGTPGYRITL

Beta-galactosidase = Beta-galactosidase (Escherichia coli, UniProt Q8VNN2); experiment: Dose response counterscreen for EBI2 assay utilizing the enzyme, b-galactosidase.; format: functional
[7] = molecular target: T6, Heat shock factor protein 1 (Mus musculus, UniProt P38532); experiment: decrease of HSF1-responsive luciferase luminescence – cell-based, NIH3T3, dose retest, confirmation (AID 2382); format: functional;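 further: NIH3T3 fibroblasts with HSF1-driven luciferase reporter stressed by proteasome inhibitor MG132; luminescence from HSF1-driven luciferase expression after 8 hours of MG132 stress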
T6 sequence (P38532 whole entry): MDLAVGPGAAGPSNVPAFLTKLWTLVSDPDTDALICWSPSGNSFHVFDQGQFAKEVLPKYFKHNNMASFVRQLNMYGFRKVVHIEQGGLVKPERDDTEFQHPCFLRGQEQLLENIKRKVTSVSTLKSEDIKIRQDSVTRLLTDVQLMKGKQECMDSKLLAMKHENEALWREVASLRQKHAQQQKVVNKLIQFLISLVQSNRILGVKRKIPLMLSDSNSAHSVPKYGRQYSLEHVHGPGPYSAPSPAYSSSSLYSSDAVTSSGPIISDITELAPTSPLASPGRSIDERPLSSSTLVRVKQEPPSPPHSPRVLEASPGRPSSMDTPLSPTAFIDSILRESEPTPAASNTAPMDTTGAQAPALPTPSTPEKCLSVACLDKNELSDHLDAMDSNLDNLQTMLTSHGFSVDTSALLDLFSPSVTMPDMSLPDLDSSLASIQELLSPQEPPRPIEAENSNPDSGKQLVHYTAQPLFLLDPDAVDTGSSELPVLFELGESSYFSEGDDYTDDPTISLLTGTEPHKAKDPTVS

Protein skinhead-1 = molecular target: T7, Protein skinhead-1 (Caenorhabditis elegans, UniProt P34707); format: functional
T7 sequence (P34707 whole entry): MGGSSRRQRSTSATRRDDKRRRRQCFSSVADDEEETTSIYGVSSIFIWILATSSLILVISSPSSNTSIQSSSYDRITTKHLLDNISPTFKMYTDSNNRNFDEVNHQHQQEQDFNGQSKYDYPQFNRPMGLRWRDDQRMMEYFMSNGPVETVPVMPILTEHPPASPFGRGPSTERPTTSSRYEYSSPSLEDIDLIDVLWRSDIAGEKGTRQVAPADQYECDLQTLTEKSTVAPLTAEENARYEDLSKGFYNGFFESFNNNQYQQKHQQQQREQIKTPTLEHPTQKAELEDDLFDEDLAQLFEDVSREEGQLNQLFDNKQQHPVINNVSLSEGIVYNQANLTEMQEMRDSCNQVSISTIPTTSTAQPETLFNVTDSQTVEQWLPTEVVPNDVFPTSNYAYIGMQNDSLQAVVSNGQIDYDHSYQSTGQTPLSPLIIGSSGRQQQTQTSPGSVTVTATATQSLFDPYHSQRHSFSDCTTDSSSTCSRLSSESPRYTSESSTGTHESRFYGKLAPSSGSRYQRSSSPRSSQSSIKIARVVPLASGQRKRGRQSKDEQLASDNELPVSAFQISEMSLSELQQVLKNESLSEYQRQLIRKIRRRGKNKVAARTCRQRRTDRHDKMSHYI

HEK293 = experiment: EBV LMP1 TES2 canonical NF-kB signalling blockers – cell-based, HEK293, luciferase, cherry-pick, dose response (AID 588343); format: functional; conditions: Homo sapiens
Fatty acid synthase [8] = molecular target: T8, Fatty acid synthase (Homo sapiens, UniProt P49327); experiment: inhibition of human FAS-TE enzyme activity – biochemical, kinetic fluorescence intensity, dose response (AID 624326); format: functional;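 further: rate of fluorescence rise from hydrolysis of a fluorogenic O-methyl fluorescein ester substrate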
Fatty acid synthase [9] = molecular target: T8, Fatty acid synthase; experiment: inhibition of human FAS-TE enzyme activity – biochemical, endpoint fluorescence intensity, uHTS hits, dose response (AID 624327); format: functional;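 further: fluorescence from hydrolysis of an O-methyl fluorescein acyl ester substrate by the enzyme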

Chain of Luciferin 4-monooxygenase (P08659 whole entry): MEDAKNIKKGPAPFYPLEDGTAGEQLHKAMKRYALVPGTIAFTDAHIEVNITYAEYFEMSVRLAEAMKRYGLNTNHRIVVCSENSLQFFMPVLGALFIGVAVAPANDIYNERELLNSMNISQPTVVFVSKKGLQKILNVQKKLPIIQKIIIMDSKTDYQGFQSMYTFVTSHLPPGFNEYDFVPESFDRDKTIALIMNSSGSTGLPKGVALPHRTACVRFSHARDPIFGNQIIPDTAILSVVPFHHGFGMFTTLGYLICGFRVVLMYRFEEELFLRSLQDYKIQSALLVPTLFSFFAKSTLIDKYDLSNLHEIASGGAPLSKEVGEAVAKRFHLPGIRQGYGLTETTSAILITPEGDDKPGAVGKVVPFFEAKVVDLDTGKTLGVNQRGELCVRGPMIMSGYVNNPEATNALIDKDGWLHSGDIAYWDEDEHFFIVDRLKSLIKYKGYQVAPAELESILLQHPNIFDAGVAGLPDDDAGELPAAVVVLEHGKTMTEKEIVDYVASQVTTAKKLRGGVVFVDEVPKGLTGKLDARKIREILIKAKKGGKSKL
Chain of Beta-galactosidase (Q8VNN2 whole entry): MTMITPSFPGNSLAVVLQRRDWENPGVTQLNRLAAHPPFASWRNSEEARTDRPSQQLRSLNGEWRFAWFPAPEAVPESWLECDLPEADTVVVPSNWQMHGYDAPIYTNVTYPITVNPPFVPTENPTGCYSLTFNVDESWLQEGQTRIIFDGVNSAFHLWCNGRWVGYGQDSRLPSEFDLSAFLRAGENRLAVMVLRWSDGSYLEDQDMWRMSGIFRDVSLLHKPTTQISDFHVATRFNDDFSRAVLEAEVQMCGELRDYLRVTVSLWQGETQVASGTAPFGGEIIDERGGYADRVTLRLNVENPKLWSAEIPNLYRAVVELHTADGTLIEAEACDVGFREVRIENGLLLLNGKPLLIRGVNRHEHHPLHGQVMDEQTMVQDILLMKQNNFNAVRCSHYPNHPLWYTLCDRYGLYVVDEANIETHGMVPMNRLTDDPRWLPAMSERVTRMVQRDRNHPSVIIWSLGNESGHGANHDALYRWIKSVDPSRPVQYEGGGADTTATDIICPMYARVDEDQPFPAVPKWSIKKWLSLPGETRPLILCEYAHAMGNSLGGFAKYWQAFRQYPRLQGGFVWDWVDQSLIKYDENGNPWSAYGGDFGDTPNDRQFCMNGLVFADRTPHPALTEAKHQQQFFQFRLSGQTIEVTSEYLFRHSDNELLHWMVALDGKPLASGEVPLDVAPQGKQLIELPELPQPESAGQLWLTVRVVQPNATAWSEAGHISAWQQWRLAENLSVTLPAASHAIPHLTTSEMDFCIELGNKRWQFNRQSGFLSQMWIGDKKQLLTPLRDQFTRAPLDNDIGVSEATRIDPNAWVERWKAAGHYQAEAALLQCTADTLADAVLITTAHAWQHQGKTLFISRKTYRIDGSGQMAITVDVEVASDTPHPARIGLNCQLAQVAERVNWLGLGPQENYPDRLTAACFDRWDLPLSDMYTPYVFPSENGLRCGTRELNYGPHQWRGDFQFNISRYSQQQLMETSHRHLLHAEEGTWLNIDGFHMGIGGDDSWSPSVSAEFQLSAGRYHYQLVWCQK
T8 sequence (P49327 whole entry): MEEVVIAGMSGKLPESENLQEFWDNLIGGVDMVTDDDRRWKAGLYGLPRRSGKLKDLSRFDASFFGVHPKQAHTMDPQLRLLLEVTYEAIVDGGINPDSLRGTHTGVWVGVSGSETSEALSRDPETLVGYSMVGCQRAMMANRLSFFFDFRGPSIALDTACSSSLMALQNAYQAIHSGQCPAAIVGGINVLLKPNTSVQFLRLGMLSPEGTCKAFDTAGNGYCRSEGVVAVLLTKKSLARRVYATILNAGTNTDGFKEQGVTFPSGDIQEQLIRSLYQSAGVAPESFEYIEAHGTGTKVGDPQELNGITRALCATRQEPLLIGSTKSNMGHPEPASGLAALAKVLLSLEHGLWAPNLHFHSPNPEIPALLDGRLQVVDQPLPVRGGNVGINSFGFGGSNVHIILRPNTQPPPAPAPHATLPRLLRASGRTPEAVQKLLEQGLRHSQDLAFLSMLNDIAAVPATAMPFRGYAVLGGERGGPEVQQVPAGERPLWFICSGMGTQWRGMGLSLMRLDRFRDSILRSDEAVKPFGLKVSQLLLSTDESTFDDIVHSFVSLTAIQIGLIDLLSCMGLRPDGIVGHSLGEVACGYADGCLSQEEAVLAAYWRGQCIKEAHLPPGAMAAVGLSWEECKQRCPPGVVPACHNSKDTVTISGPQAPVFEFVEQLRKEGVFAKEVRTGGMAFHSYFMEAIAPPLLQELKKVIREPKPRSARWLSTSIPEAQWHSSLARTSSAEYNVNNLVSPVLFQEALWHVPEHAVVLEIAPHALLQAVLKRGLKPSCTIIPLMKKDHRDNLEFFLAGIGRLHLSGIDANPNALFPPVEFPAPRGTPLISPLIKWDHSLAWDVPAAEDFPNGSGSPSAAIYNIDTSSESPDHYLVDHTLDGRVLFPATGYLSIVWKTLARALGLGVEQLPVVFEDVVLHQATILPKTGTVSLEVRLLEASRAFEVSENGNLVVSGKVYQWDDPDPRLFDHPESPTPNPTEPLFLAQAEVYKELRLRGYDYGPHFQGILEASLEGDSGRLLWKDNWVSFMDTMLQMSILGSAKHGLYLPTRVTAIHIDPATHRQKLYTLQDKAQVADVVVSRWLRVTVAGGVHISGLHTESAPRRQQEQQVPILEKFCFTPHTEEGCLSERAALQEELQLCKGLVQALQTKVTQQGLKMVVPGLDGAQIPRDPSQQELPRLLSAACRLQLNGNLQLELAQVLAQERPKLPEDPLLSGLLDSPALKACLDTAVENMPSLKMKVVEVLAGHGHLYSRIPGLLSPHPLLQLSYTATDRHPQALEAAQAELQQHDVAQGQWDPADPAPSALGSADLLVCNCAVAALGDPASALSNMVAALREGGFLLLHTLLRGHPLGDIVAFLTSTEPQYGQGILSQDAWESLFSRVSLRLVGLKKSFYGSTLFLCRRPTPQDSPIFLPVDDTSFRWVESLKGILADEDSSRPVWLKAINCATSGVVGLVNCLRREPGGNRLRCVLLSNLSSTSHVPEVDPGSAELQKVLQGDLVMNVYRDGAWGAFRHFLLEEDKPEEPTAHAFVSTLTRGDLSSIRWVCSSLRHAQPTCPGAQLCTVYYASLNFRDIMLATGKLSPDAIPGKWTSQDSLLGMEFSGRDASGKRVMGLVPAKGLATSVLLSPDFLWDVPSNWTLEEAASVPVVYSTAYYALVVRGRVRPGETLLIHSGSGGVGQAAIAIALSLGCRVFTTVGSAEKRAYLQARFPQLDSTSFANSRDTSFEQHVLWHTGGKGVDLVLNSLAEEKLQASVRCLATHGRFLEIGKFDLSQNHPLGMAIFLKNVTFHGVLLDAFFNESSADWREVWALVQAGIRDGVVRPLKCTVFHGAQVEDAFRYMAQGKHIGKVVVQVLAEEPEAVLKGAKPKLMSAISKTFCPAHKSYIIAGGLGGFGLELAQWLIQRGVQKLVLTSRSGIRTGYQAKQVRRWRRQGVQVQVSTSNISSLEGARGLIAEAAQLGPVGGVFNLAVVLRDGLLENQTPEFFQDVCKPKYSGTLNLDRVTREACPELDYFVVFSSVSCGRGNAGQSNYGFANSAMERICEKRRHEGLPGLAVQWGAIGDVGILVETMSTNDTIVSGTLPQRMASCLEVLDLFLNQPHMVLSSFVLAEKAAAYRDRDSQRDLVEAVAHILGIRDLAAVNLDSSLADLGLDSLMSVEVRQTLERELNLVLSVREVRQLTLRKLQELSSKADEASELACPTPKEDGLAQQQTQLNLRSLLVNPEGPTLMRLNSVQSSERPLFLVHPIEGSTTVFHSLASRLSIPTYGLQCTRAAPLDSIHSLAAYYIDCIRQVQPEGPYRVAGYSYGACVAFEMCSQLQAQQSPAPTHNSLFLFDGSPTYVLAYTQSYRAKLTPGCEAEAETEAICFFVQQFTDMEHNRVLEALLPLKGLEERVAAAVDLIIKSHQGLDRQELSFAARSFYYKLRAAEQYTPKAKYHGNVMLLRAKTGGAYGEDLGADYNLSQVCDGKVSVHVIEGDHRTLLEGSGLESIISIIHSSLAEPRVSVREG

CN1/C(=C\C(=O)COC(=O)c2ccc([N+](=O)[O-])o2)C(C)(C)c2ccccc21
EC50 [1]: > 112 µM (not active) | EC50 [2]: > 112 µM (not active) | IC50 (cells): 1.22 µM (active)

O=C(CCCN1C(=O)/C(=C/c2cccc(Br)c2)SC1=S)N1CCOCC1
IC50 [3]: 45.6 µM (active) | IC50 [4]: 78.1 µM (active) | IC50 [5]: 79.6 µM (active) | IC50 (Caspase-3): > 100 µM (inactive)

Cc1ccc(CNS(=O)(=O)c2ccc3c(c2)CCN3C(=O)CCCC(=O)O)cc1
AC50 [6]: > 52 µM (inactive)

Cc1ccc(C)c(-c2nnc(NC(=O)CS(=O)(=O)c3ccccc3)o2)c1
EC50 [1]: > 112 µM (not active) | EC50 [2]: > 112 µM (not active)

CN(C)CCN(C(=O)c1ccc2ccccc2c1)c1nc2ccc(Br)cc2s1
AC50 (CAAX prenyl protease 2): 4.77 µM (active)

COc1cc(/C=C(\C#N)C(=O)Nc2ccc3ccccc3c2)c([N+](=O)[O-])cc1OC
IC50 (Beta-galactosidase): > 80 µM (inactive)

COc1ccc(NC(=O)c2sc(SCc3ccccc3)nc2N)cc1
IC50 (Beta-galactosidase): > 80 µM (inactive)

CC(=O)Oc1ccc(/C=C/c2nc3ccccc3c(=O)o2)cc1
EC50 [1]: 0.359 µM (active) | EC50 [2]: 0.333 µM (active)

COc1ccc(COc2ccc3c(C)cc(=O)oc3c2)cc1
IC50 [3]: 9.04 µM (active) | IC50 [4]: 32.3 µM (active) | IC50 [5]: 21.6 µM (active) | IC50 (Caspase-3): 20 µM (active)

O=C(c1cnc2n(c1=O)CCS2)N1CCN(C(c2ccccc2)c2ccc(Cl)cc2)CC1 (stereo unspecified)
AC50 (CAAX prenyl protease 2): 8.81 µM (active)

Cc1[nH]c2nc(SCC(=O)c3ccccc3)nc-2cc1Br
EC50 [1]: > 112 µM (not active) | EC50 [2]: > 112 µM (not active)

O=C1/C(=C\c2ccc(O)cc2)SC(=S)N1Cc1ccccc1
IC50 [3]: 16 µM (active) | IC50 [4]: 9.59 µM (active) | IC50 [5]: 8 µM (active) | IC50 (Caspase-3): 41 µM (active)

O=C(/C=C/Nc1ccc(F)cc1Br)c1ccccc1
EC50 [7]: < 0.16 µM (active) | EC50 [1]: 0.283 µM (active) | EC50 [2]: 3.37 µM (active) | IC50 (Protein skinhead-1): > 100 µM (inactive) | AC50 (HEK293): 1.38 µM (active)

O=C(c1ccccc1)C1CCN(C(=O)c2ccc(Cl)cc2)CC1
IC50 (Beta-galactosidase): > 80 µM (inactive)

CC(C)(C)CNC(=O)c1cccc2c1C(=O)c1ccc(N3CCCC3)cc1S2(=O)=O
IC50 (Beta-galactosidase): > 80 µM (inactive)

COc1cccc(NC(=O)Cn2c3ccc(F)cc3c3nc4n(c(=O)c32)CCCS4)c1
IC50 (Beta-galactosidase): > 80 µM (inactive)

C[C@@H]1CN([C@H](C)CO)S(=O)(=O)c2ccc(C#Cc3ccccc3F)cc2O[C@@H]1CN(C)C(=O)Cc1ccccc1
IC50 (Fatty acid synthase [8]): 3.79 µM (active) | IC50 (Fatty acid synthase [9]): 3.71 µM (active) | IC50 (Beta-galactosidase): > 80 µM (inactive)

CCOc1ccc(/C=N/NC(=O)c2ccc(Cn3cc(Br)cn3)o2)cc1
IC50 [3]: 13.2 µM (active) | IC50 [4]: 56.5 µM (active) | IC50 [5]: 52.7 µM (active) | IC50 (Caspase-3): 35.4 µM (active)
